Data taken from patent US20200069691A1, “HETEROCYCLIC COMPOUNDS AS HIV PROTEASE INHIBITORS” (Merck Sharp & Dohme Corp., priority 2016, published 2020).

Each molecule was assayed against T1, wild-type HIV-1 protease (Human immunodeficiency virus type 1 group M subtype B, UniProt P04585) (assay: Assay for Inhibition of Microbial Expressed HIV Protease (peptide substrate cleavage, LC-MS/MS readout)). Settings: E. coli expressed wild-type HIV-1 protease, mean of at least two independent experiments, read-out: HIV Pr Enzyme HIV1 PR IC50.
T1 construct: Escherichia coli expressed wild-type HIV-1 protease protein
Type: biochemical
How it was run: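 Cleavage of Val-Ser-Gln-Asn-(β-naphthyl)Ala-Pro-Ile-Val (400 μM) by recombinant HIV-1 protease ([…]) ran 1 h at 30 °C after a 30 min room-temperature inhibitor preincubation in 50 mM sodium acetate pH 5.5. Product peak areas by LC-MS/MS gave inhibition; values average at least two independent runs.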
Molecule `N=C1NC(c2ccc(F)cc2)(c2ccc(F)cc2)C(=O)N1Cc1cncc(C(=O)N2CCC(n3c(=O)[nH]c4ccccc43)CC2)c1` [Compound 392, 1-{1-[(5-{[4,4-bis(4-fluorophenyl)-2-imino-5-oxoimidazolidin-1-yl]methyl}pyridin-3-yl)carbonyl]piperidin-4-yl}-1,3-dihydro-2H-benzimidazol-2-one] has an IC50 of 61.7 nM. `N#Cc1ncc2c(n1)CN(C(=O)c1cncc(CN3C(=N)NC(c4ccc(F)cc4)(c4ccc(F)cc4)C3=O)c1)C2` [Compound 393, 6-[(5-{[4,4-bis(4-fluorophenyl)-2-imino-5-oxoimidazolidin-1-yl]methyl}pyridin-3-yl)carbonyl]-6,7-dihydro-5H-pyrrolo[3,4-d]pyrimidine-2-carbonitrile] was tested, and the IC50 was 67.1 nM. Work on `N=C1NC(c2ccc(F)cc2)(c2ccc(F)cc2)C(=O)N1Cc1cncc(C(=O)N2Cc3ccccc3C2)c1` [Compound 394, 3-{[5-(1,3-dihydro-2H-isoindol-2-ylcarbonyl)pyridin-3-yl]methyl}-5,5-bis(4-fluorophenyl)-2-iminoimidazolidin-4-one] yielded an IC50 of 93.1 nM. `N=C1NC(c2ccc(F)cc2)(c2ccc(F)cc2)C(=O)N1Cc1cncc(C(=O)N2CCN(C(=O)OCc3ccccc3)CC2)c1` [Compound 395, benzyl 4-[(5-{[4,4-bis(4-fluorophenyl)-2-imino-5-oxoimidazolidin-1-yl]methyl}pyridin-3-yl)carbonyllpiperazine-1-carboxylate] was tested, and the IC50 was 97.4 nM. `N=C1NC(c2ccccc2)(c2ccccc2)C(=O)N1Cc1cc(C(=O)N2Cc3ccccc3C2)ccn1` [Compound 396, 3-{[4-(1,3-dihydro-2H-isoindol-2-ylcarbonyl)pyridin-2-yl]methyl}-2-imino-5,5-diphenylimidazolidin-4-one] was tested, and the IC50 was 16.7 nM. `N#Cc1ncc2c(n1)CN(C(=O)c1ccnc(CN3C(=N)NC(c4ccccc4)(c4ccccc4)C3=O)c1)C2` [Compound 397, 6-({2-[(2-imino-5-oxo-4,4-diphenylimidazolidin-1-yl)methyl]pyridin-4-yl}carbonyl)-6,7-dihydro-5H-pyrrolo[3,4-d]pyrimidine-2-carbonitrile] gave an IC50 of 18.1 nM. With `N=C1NC(c2ccc(F)cc2)(c2ccc(F)cc2)C(=O)N1Cc1cc(C(=O)N2Cc3ccccc3C2)ccn1` [Compound 398, 3-{[4-(1,3-dihydro-2H-isoindol-2-ylcarbonyl)pyridin-2-yl]methyl}-5,5-bis(4-fluorophenyl)-2-iminoimidazolidin-4-one] the IC50 was 19.2 nM. Molecule `N=C1NC(c2ccccc2)(c2ccccc2)C(=O)N1Cc1cc(C(=O)N2Cc3nccnc3C2)ccn1` [Compound 399, 3-{[4-(5,7-dihydro-6H-pyrrolo[3,4-b]pyrazin-6-ylcarbonyl)pyridin-2-yl]methyl}-2-imino-5,5-diphenylimidazolidin-4-one] has an IC50 of 20.4 nM. In the case of `CC(C)CCC1(c2ccccc2)NC(=N)N(Cc2cc(C(=O)N3Cc4nccnc4C3)ccn2)C1=O` (centres unmarked) [Compound 400, 3-{[4-(5,7-dihydro-6H-pyrrolo[3,4-b]pyrazin-6-ylcarbonyl)pyridin-2-yl]methyl}-2-imino-5-(3-methylbutyl)-5-phenylimidazolidin-4-one], the IC50 is reported as 25.6 nM. For `N=C1NC(c2ccccc2)(c2ccccc2)C(=O)N1Cc1cc(C(=O)N2Cc3cncnc3C2)ccn1` [Compound 401, 3-{[4-(5,7-dihydro-6H-pyrrolo[3,4-d]pyrimidin-6-ylcarbonyl)pyridin-2-yl]methyl}-2-imino-5,5-diphenylimidazolidin-4-one], the IC50 was 31.4 nM. Molecule `N=C1NC(c2ccc(F)cc2)(c2ccc(F)cc2)C(=O)N1Cc1cc(C(=O)N2Cc3nccnc3C2)ccn1` [Compound 402, 3-{[4-(5,7-dihydro-6H-pyrrolo[3,4-b]pyrazin-6-ylcarbonvl)pyridin-2-yl]methyl}-5,5-bis(4-fluorophenyl)-2-iminoimidazolidin-4-one] has an IC50 of 34.2 nM. Work on `CC(C)CC1(c2ccccc2)NC(=N)N(Cc2cc(C(=O)N3Cc4nccnc4C3)ccn2)C1=O` (centres unmarked) [Compound 403, 3-{[4-(5,7-dihydro-6H-pyrrolo[3,4-b]pyrazin-6-ylcarbonyl)pyridin-2-yl]methyl}-2-imino-5-(2-methylpropyl)-5-phenylimidazolidin-4-one] yielded an IC50 of 54.3 nM. With `COC(=O)N1CCN(C(=O)c2ccnc(CN3C(=N)NC(c4ccc(F)cc4)(c4ccc(F)cc4)C3=O)c2)CC1` [Compound 404, methyl 4-[(2-{[4,4-bis(4-fluorophenyl)-2-imino-5-oxoimidazolidin-1-yl]methyl}pyridin-4-yl)carbonyl]piperazine-1-carboxylate] the IC50 was 58.6 nM. For `COC(=O)N1CCN(C(=O)c2ccnc(CN3C(=N)NC(CCC(C)C)(c4ccccc4)C3=O)c2)CC1` (centres unmarked) [Compound 405, methyl 4-[(2-{[2-imino4-(3-methylbutyl)-5-oxo-4-phenylimidazolidin-1-yl]methyl}pyridin-4-yl)carbonyl]piperazine-1-carboxylate], the IC50 was 81.1 nM. For `Cc1cc(CN2C(=N)NC(c3ccc(F)cc3)(c3ccc(F)cc3)C2=O)cc(C(=O)N2Cc3nccnc3C2)n1` [Compound 406, 3-{[2-(5,7-dihydro-6H-pyrrolo[3,4-b]pyrazin-6-ylcarbonyl)-6-methylpyridin-4-yl]methyl}-5,5-bis(4-fluorophenyl)-2-iminoimidazolidin-4-one], the IC50 was 10.6 nM. Work on `N=C1NC(c2ccccc2)(c2ccccc2)C(=O)N1Cc1cc(C(=O)N2Cc3nccnc3C2)cs1` [Compound 407, 3-{[4-(5,7-dihydro-6H-pyrrolo[3,4-b]pyrazin-6-ylcarbonyl)thiophen-2-yl]methyl}-2-imino-5,5-diphenylimidazolidin-4-one] yielded an IC50 of 73.8 nM. Work on `N=C1NC(c2ccccc2)(c2ccccc2)C(=O)N1Cc1cc(C(=O)N2Cc3cncnc3C2)cs1` [Compound 408, 3-{[4-(5,7-dihydro-6H-pyrrolo[3,4-d]pyrimidin-6-ylcarbonyl)thiophen-2-yl]methyl}-2-imino-5,5-diphenylimidazolidin-4-one] yielded an IC50 of 80.5 nM.
